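Cultured in 96-well plates, cells were exposed to test compound for 48 hours across five concentrations. GI50 marks 50% less growth.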 Active and inactive are the calls of the source. Rule as the data show it: active = GI50 up to about 1.1 µM and inactive = higher.
How the values were obtained:
Assay in all cases: inhibition of tumour cell growth, NCI panel, 48 h
K562 = system: K562
HL-60 = system: HL-60
UACC-257 = system: UACC-257
KM12 = system: KM12
SF-268 = system: SF-268
LOX IMVI = system: LOX IMVI
SNB-75 = system: SNB-75
HOP-62 = system: HOP-62
CCRF-CEM = system: CCRF-CEM
SK-OV-3 = system: SK-OV-3
HOP-92 = system: HOP-92
UACC-62 = system: UACC-62
RPMI-8226 = system: RPMI-8226
SK-MEL-5 = system: SK-MEL-5
NCI-H23 = system: NCI-H23
Malme-3M = system: Malme-3M
COLO 205 = system: COLO 205
MCF7 = system: MCF7
MDA-MB-435 = system: MDA-MB-435

| Compound | GI50 (K562) | GI50 (HL-60) | GI50 (UACC-257) | GI50 (KM12) | GI50 (SF-268) | GI50 (LOX IMVI) | GI50 (SNB-75) | GI50 (HOP-62) | GI50 (CCRF-CEM) | GI50 (SK-OV-3) | GI50 (HOP-92) | GI50 (UACC-62) | GI50 (RPMI-8226) | GI50 (SK-MEL-5) | GI50 (NCI-H23) | GI50 (Malme-3M) | GI50 (COLO 205) | GI50 (MCF7) | GI50 (MDA-MB-435) |
| --- | --- | --- | --- | --- | --- | --- | --- | --- | --- | --- | --- | --- | --- | --- | --- | --- | --- | --- | --- |
| COC[C@@H]1[C@H]2OC(C)(C)O[C@H]2C(=O)N1C(=O)c1ccc(OC)cc1 | > 100 µM (inactive) | > 100 µM (inactive) | > 100 µM (inactive) | > 100 µM (inactive) | > 100 µM (inactive) | > 100 µM (inactive) | > 100 µM (inactive) | > 100 µM (inactive) | > 100 µM (inactive) | > 100 µM (inactive) | > 100 µM (inactive) | > 100 µM (inactive) | > 100 µM (inactive) | > 100 µM (inactive) | > 100 µM (inactive) | > 100 µM (inactive) | > 100 µM (inactive) | – | – |
| O=c1c2ccccc2nc(-c2cccc(Cl)c2)n1NC1OC(CO)C(O)C(O)C1O (stereo not given) | > 100 µM (inactive) | > 100 µM (inactive) | > 100 µM (inactive) | > 100 µM (inactive) | > 100 µM (inactive) | – | > 100 µM (inactive) | > 100 µM (inactive) | 73.3 µM (inactive) | > 100 µM (inactive) | > 100 µM (inactive) | > 100 µM (inactive) | > 100 µM (inactive) | > 100 µM (inactive) | > 100 µM (inactive) | > 100 µM (inactive) | > 100 µM (inactive) | – | – |
| CCOC(=O)[C@@]12C(C)=CC(=O)O[C@]1(C)C[C@H]2C#N | > 100 µM (inactive) | > 100 µM (inactive) | > 100 µM (inactive) | > 100 µM (inactive) | > 100 µM (inactive) | > 100 µM (inactive) | 20.8 µM (inactive) | > 100 µM (inactive) | > 100 µM (inactive) | > 100 µM (inactive) | > 100 µM (inactive) | > 100 µM (inactive) | > 100 µM (inactive) | > 100 µM (inactive) | > 100 µM (inactive) | > 100 µM (inactive) | > 100 µM (inactive) | – | – |
| Cc1ccc2c(c1)CN1c3ccc(C)cc3CN2C1c1ccccc1O | 34.7 µM (inactive) | 14.8 µM (inactive) | – | 43.3 µM (inactive) | 81.7 µM (inactive) | 58.5 µM (inactive) | 0.667 µM (active) | 85.9 µM (inactive) | 47.9 µM (inactive) | > 100 µM (inactive) | 15.2 µM (inactive) | 25.1 µM (inactive) | 19.5 µM (inactive) | 13.7 µM (inactive) | 27.3 µM (inactive) | > 100 µM (inactive) | 78.7 µM (inactive) | – | – |
| O=C1C=C(Nc2ccc(Cl)cc2C(=O)c2ccccc2)c2ccccc2C1=O | > 100 µM (inactive) | > 100 µM (inactive) | > 100 µM (inactive) | > 100 µM (inactive) | > 100 µM (inactive) | > 100 µM (inactive) | > 100 µM (inactive) | > 100 µM (inactive) | > 100 µM (inactive) | > 100 µM (inactive) | – | > 100 µM (inactive) | – | > 100 µM (inactive) | > 100 µM (inactive) | > 100 µM (inactive) | > 100 µM (inactive) | – | – |
| Nc1nc(N)c(-c2ccccc2)c(C(=O)Nc2ccc(Cl)c(Cl)c2)n1 | > 100 µM (inactive) | > 100 µM (inactive) | > 100 µM (inactive) | > 100 µM (inactive) | > 100 µM (inactive) | > 100 µM (inactive) | > 100 µM (inactive) | > 100 µM (inactive) | – | – | > 100 µM (inactive) | > 100 µM (inactive) | 46.8 µM (inactive) | > 100 µM (inactive) | > 100 µM (inactive) | > 100 µM (inactive) | – | – | – |
| O=C1C(c2ccccc2)=C(c2ccccc2)C(c2ccc(-c3ccc(C4=C(c5ccccc5)C(=O)C(c5ccccc5)=C4c4ccccc4)cc3)cc2)=C1c1ccccc1 | > 100 µM (inactive) | > 100 µM (inactive) | > 100 µM (inactive) | > 100 µM (inactive) | > 100 µM (inactive) | > 100 µM (inactive) | 48.1 µM (inactive) | > 100 µM (inactive) | > 100 µM (inactive) | > 100 µM (inactive) | > 100 µM (inactive) | > 100 µM (inactive) | 46.9 µM (inactive) | > 100 µM (inactive) | > 100 µM (inactive) | > 100 µM (inactive) | > 100 µM (inactive) | – | – |
| O=C(N/N=C/c1cc(Cl)cc(Cl)c1O)c1ccncc1 | > 100 µM (inactive) | 26.4 µM (inactive) | > 100 µM (inactive) | > 100 µM (inactive) | > 100 µM (inactive) | > 100 µM (inactive) | > 100 µM (inactive) | 53.2 µM (inactive) | 31.2 µM (inactive) | > 100 µM (inactive) | – | 63 µM (inactive) | > 100 µM (inactive) | 81.3 µM (inactive) | 78.9 µM (inactive) | > 100 µM (inactive) | > 100 µM (inactive) | – | – |
| Cc1nc(-c2cc3c(ccc4ccccc43)oc2=O)cc2c1c(=O)oc1ccc3ccccc3c12 | > 100 µM (inactive) | > 100 µM (inactive) | > 100 µM (inactive) | > 100 µM (inactive) | > 100 µM (inactive) | > 100 µM (inactive) | – | > 100 µM (inactive) | > 100 µM (inactive) | > 100 µM (inactive) | > 100 µM (inactive) | > 100 µM (inactive) | – | > 100 µM (inactive) | > 100 µM (inactive) | > 100 µM (inactive) | > 100 µM (inactive) | > 100 µM (inactive) | > 100 µM (inactive) |
